# From article PMC3003306 (Structure (London, England : 1993), 2010)
# Target: T1, IGPS (HisF-HisH heterodimer), glutaminase site in HisH (Thermotoga maritima, UniProt Q9X0C8)
# T1 sequence (Q9X0C8 1-201): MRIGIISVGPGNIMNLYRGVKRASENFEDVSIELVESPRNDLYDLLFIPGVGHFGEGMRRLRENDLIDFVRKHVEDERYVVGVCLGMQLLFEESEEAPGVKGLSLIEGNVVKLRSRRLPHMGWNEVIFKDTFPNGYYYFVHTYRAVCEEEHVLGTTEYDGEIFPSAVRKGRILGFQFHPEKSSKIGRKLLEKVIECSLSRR
# T1 sequence (Q9X0C6 1-253 partner): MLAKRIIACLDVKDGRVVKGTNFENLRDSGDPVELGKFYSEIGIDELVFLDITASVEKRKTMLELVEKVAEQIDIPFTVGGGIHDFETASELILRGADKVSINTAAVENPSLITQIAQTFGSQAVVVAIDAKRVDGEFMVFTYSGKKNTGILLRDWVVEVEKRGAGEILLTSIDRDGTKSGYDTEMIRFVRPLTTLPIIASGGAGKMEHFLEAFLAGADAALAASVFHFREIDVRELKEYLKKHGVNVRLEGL
# Test: covalent modification of HisH C84 followed by DTNB analysis
# Assay type: binding
# Conditions: 1.5 molar equivalents acivicin, room temperature, HisH active site nucleophile C84
smiles,measurement,value
N[C@H](C(=O)O)[C@@H]1CC(Cl)=NO1 [acivicin],covalent modification of HisH C84 followed by DTNB analysis; NMR,IGPS (HisH-C84) was covalently modified with acivicin
